Reference: ChEMBL document CHEMBL4251714, “Isolation, Characterization, and Structure-Activity Relationship Analysis of Abietane Diterpenoids from Callicarpa bodinieri as Spleen Tyrosine Kinase Inhibitors” (J Nat Prod, 2018)
Values belong to the molecule of their own block, whether it stands above or below them.

Key:
[1] = Inhibition of PKA (unknown origin) by mobility shift assay; set-up: species or system Homo sapiens
[2] = target: T1, Tyrosine-protein kinase JAK3 (Homo sapiens, UniProt P52333); assay: Inhibition of JAK3 (unknown origin) by mobility shift assay
T1 sequence (P52333 whole entry): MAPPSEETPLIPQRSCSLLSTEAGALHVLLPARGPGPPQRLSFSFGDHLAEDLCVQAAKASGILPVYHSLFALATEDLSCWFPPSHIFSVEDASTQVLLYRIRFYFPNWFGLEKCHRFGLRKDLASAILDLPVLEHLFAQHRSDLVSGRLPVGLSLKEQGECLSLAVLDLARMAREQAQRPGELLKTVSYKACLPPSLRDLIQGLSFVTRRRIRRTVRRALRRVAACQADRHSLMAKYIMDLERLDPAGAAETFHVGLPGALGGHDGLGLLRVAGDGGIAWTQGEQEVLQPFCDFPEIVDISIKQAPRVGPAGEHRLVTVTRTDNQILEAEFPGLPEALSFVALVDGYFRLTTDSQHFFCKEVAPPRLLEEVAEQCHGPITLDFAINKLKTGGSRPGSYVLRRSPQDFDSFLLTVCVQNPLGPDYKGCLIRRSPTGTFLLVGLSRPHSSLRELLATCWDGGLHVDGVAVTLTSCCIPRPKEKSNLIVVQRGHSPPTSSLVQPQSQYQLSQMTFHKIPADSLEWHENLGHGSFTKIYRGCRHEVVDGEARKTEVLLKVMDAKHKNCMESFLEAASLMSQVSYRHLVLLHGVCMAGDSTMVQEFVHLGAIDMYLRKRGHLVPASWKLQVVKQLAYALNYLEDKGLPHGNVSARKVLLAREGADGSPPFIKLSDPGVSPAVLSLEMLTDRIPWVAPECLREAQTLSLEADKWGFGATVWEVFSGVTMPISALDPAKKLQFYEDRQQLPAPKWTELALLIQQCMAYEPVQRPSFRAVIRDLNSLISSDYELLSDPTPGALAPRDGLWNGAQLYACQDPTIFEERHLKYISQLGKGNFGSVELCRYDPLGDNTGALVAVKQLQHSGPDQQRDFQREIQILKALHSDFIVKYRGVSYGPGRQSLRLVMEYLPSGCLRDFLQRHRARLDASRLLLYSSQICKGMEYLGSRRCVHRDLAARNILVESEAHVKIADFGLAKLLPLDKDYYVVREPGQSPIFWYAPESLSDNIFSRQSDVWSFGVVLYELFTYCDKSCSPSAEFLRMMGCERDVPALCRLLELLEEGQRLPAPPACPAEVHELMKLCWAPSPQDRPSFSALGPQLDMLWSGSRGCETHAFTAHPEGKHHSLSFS

[3] = target: ALK tyrosine kinase receptor (Homo sapiens) (UniProt Q9UM73); assay: Inhibition of ALK (unknown origin) at 50 ug/ml by mobility shift assay relative to control
Sequence of ALK tyrosine kinase receptor (Homo sapiens) (Q9UM73 19-1620 limits assumed): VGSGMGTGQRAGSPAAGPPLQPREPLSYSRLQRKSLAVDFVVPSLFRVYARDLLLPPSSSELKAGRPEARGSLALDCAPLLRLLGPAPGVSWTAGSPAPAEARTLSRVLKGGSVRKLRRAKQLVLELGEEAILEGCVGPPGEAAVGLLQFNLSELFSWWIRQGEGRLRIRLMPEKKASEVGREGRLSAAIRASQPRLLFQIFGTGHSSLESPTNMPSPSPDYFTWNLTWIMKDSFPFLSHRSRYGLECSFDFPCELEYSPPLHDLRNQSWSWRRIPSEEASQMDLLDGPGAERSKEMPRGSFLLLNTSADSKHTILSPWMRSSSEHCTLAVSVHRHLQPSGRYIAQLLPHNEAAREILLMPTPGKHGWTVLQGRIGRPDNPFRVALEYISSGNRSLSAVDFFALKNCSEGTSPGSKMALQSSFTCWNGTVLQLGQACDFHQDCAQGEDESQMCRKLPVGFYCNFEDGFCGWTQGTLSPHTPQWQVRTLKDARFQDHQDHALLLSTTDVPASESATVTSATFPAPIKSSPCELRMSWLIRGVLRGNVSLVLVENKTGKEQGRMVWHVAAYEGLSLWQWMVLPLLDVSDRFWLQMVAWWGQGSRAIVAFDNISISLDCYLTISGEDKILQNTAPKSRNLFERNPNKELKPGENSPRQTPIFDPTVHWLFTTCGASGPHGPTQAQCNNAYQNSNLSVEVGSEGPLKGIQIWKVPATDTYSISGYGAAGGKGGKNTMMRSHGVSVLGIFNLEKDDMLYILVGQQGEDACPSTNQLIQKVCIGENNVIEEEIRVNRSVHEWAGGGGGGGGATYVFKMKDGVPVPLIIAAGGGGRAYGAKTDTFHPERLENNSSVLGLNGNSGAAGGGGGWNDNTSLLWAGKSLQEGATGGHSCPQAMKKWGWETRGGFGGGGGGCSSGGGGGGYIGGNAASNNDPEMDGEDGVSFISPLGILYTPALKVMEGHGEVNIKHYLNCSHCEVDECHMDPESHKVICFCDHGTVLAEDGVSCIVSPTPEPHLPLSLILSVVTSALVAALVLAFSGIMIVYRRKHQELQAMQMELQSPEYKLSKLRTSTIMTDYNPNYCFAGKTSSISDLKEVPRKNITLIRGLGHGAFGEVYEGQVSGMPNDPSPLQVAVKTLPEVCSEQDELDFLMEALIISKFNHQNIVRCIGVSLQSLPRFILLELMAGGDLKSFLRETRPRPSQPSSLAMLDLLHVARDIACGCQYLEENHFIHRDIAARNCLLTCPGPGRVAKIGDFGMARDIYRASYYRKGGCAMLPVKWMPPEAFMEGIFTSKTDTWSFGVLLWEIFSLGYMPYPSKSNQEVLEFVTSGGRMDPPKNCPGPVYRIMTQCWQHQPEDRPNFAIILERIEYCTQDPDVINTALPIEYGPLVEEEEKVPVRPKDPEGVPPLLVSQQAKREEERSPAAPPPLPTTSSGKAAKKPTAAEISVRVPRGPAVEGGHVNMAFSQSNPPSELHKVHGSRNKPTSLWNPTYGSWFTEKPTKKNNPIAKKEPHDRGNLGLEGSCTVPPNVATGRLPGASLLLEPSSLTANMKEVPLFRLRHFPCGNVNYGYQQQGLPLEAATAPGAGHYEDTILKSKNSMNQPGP

[4] = target: Proto-oncogene tyrosine-protein kinase Src (Homo sapiens) (UniProt P12931); assay: Inhibition of SRC (unknown origin) at 50 ug/ml by mobility shift assay relative to control
Sequence of Proto-oncogene tyrosine-protein kinase Src (Homo sapiens) (P12931 2-536 limits assumed): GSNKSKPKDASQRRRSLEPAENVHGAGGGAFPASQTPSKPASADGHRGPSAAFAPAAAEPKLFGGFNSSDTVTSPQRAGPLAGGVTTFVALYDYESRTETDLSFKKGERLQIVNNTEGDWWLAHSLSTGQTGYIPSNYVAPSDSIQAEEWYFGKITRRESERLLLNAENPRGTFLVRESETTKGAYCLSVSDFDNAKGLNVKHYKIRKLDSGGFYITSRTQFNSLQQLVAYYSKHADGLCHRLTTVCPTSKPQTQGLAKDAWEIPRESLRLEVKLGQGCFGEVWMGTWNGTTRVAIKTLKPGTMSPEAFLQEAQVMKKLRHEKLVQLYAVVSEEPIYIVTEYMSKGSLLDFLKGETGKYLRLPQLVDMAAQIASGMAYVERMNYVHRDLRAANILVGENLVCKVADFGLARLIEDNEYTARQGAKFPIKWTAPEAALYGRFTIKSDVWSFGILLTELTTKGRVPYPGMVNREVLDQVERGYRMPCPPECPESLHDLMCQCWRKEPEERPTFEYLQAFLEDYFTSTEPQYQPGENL

Homo sapiens = species: Homo sapiens; assay: Inhibition of PKA (unknown origin) at 50 ug/ml by mobility shift assay relative to control
[5] = target: Glycogen synthase kinase-3 beta (Homo sapiens) (UniProt P49841); assay: Inhibition of GSK3b (unknown origin) at 50 ug/ml by mobility shift assay relative to control
Sequence of Glycogen synthase kinase-3 beta (Homo sapiens) (P49841 whole entry, looked up): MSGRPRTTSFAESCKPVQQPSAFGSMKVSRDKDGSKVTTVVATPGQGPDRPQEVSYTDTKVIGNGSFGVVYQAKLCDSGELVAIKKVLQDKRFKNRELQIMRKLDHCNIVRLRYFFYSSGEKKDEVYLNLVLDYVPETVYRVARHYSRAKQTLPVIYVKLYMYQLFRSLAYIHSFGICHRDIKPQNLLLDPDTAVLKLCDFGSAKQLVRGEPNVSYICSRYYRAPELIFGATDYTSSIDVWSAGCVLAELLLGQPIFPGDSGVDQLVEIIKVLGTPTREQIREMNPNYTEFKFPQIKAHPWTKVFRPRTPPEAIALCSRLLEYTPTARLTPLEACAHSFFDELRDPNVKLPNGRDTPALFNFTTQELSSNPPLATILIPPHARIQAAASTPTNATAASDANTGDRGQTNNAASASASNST

[6] = target: T2, JAK3 (Tyrosine-protein kinase JAK3) (Homo sapiens, UniProt P52333); assay: Inhibition of JAK3 (unknown origin) at 50 ug/ml by mobility shift assay relative to control; details: JAK3 kinase (single protein, unknown origin)
T2 sequence (P52333 whole entry): T1 sequence (P52333 whole entry)

[7] = target: Focal adhesion kinase 1 (Homo sapiens) (UniProt Q05397); assay: Inhibition of FAK (unknown origin) at 50 ug/ml by Lanthascreen assay relative to control
[8] = target: T3, 3-phosphoinositide-dependent protein kinase 1 (Homo sapiens) (UniProt O15530); assay: Inhibition of PDK1 (unknown origin) at 50 ug/ml by mobility shift assay relative to control
T3 sequence (whole entry): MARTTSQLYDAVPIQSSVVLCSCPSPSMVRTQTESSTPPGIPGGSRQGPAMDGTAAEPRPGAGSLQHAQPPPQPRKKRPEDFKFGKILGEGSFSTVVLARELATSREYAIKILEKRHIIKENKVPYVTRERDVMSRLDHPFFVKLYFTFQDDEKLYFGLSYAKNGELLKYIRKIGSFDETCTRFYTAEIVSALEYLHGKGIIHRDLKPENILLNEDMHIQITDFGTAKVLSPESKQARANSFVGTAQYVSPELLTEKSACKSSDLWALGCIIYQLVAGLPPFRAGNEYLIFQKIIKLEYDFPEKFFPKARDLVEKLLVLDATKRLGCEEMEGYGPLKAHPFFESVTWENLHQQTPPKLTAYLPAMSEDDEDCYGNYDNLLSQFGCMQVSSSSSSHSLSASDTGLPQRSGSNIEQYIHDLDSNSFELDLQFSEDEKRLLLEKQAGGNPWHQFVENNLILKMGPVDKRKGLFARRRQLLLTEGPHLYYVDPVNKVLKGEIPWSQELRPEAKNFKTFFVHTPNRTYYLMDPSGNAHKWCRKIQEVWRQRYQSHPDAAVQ

[9] = target: Protein kinase C theta (Homo sapiens) (UniProt Q04759); assay: Inhibition of PKCtheta (unknown origin) at 50 ug/ml by mobility shift assay relative to control
Sequence of Protein kinase C theta (Homo sapiens) (Q04759 whole entry, looked up): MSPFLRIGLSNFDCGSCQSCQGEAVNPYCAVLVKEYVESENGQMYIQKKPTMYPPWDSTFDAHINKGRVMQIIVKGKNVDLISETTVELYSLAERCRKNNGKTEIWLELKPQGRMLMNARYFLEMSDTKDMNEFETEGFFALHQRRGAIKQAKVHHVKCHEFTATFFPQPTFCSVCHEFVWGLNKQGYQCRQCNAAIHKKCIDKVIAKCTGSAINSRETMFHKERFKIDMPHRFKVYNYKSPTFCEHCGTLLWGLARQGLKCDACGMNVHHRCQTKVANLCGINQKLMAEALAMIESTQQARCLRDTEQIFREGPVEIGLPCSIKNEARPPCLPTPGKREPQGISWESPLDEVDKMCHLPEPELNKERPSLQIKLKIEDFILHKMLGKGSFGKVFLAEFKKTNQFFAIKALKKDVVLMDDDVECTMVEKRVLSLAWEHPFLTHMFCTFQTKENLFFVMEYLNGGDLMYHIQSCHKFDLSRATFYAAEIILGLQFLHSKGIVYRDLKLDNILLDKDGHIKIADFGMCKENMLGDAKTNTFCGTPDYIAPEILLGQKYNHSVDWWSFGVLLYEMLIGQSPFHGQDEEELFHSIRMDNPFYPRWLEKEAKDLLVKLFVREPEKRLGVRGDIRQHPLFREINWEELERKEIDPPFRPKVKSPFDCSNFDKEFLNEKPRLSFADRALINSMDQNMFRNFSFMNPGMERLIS

[10] = target: Serine/threonine-protein kinase pim-1 (Homo sapiens) (UniProt P11309); assay: Inhibition of PIM1 (unknown origin) at 50 ug/ml by mobility shift assay relative to control
Sequence of Serine/threonine-protein kinase pim-1 (Homo sapiens) (P11309 whole entry, looked up): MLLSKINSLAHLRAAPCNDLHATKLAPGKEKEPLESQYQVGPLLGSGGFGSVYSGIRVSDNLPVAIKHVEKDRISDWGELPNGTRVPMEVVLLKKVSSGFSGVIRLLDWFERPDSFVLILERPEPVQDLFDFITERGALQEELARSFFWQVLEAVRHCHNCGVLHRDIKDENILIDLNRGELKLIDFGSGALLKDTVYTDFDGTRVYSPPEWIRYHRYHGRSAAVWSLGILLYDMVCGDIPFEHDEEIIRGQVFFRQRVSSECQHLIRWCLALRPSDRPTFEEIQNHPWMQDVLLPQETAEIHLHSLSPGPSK

[11] = target: RAC-alpha serine/threonine-protein kinase (Homo sapiens) (UniProt P31749); assay: Inhibition of AKT1 (unknown origin) at 50 ug/ml by mobility shift assay relative to control
Sequence of RAC-alpha serine/threonine-protein kinase (Homo sapiens) (P31749 whole entry): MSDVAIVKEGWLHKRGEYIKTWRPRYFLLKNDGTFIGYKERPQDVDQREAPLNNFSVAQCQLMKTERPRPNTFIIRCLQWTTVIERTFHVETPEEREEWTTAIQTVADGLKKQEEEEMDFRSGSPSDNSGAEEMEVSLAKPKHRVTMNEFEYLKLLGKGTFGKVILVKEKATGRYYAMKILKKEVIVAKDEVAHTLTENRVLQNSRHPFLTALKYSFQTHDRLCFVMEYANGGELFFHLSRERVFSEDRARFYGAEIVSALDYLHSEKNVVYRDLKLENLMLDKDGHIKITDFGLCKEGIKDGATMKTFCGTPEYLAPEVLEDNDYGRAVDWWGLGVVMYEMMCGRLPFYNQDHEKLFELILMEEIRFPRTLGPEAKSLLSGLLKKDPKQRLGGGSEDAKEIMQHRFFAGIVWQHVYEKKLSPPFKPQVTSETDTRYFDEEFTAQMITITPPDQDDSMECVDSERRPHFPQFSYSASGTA

[12] = target: Serine/threonine-protein kinase B-raf (Homo sapiens) (UniProt P15056); assay: Inhibition of BRAF (unknown origin) at 50 ug/ml by Lanthascreen assay relative to control
Sequence of Serine/threonine-protein kinase B-raf (Homo sapiens) (P15056 whole entry): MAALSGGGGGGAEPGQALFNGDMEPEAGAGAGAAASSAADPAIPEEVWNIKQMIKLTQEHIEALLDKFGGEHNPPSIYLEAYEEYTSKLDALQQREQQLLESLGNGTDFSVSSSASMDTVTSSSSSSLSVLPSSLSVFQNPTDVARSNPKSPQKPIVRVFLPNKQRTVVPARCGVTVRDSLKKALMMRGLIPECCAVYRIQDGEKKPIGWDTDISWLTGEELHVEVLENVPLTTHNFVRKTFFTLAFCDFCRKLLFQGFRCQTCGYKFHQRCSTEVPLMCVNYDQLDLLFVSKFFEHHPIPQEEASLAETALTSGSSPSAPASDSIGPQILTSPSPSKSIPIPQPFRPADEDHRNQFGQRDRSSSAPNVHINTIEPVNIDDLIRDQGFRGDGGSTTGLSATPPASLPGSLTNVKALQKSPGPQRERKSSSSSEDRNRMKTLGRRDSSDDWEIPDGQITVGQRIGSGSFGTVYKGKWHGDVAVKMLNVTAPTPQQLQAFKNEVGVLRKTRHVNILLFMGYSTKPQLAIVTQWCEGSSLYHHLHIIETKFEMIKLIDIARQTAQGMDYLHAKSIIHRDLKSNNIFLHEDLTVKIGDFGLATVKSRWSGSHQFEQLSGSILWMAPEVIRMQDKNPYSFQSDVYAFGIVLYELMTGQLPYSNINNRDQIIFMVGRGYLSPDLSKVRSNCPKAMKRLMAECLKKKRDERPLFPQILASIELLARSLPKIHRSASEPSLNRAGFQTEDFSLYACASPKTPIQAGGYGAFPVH

[13] = target: Tyrosine-protein kinase SYK (Homo sapiens) (UniProt P43405); assay: Inhibition of SYK (unknown origin) at 50 ug/ml by mobility shift assay relative to control
[14] = target: T4, Tyrosine-protein kinase ZAP-70 (Homo sapiens) (UniProt P43403); assay: Inhibition of ZAP70 (unknown origin) at 50 ug/ml by mobility shift assay relative to control
T4 sequence (whole entry): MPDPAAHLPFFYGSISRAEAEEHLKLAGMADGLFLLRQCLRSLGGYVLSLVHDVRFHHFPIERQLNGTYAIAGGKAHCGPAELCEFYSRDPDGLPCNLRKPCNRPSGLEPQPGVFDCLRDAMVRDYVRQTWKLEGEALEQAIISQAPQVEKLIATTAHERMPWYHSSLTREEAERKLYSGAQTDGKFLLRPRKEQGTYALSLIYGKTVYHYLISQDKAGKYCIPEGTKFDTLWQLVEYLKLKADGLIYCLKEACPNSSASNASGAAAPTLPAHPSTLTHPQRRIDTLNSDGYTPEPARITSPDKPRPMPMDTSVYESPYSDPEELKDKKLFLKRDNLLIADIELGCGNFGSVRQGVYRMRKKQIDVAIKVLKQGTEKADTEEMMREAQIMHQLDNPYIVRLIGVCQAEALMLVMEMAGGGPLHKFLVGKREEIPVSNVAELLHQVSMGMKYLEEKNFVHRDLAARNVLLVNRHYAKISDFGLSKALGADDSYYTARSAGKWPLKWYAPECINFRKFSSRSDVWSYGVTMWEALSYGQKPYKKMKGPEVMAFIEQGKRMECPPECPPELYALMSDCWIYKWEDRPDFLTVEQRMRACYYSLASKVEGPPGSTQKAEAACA

Compound: CN[C@@H]1C[C@H]2O[C@@](C)([C@@H]1OC)n1c3ccccc3c3c4c(c5c6ccccc6n2c5c31)C(=O)NC4
IC50 [1]: 0.0022 µM

Compound: CC(=O)c1ccc2c(c1)CC[C@H]1[C@@](CO)(C(=O)O)CCC[C@]21C
IC50 [2]: > 100 µM

Compound: CC(C)c1cc2c(cc1O)[C@@]1(C)CCC[C@@](C)(C=O)[C@@H]1CC2 [18-OXOFERRUGINOL]
IC50 [2]: > 100 µM

Other lines, results leading:

IC50 [2]: > 100 µM
Compound: C=C(C)c1ccc2c(c1)CC[C@H]1[C@@](CO)(C(=O)O)CCC[C@]21C

IC50 [2]: > 100 µM
Compound: CC(C)c1ccc2c(c1)CC[C@H]1[C@@](CO)(C(=O)O)CCC[C@]21C

IC50 [2]: > 100 µM
Compound: CC(C)(O)c1ccc2c(c1)CC[C@H]1[C@](C)(C(=O)O)CCC[C@]21C

inhibition [3]: 17.6%
inhibition [4]: 61.2%
inhibition (Homo sapiens): 69.9%
inhibition [5]: 20.1%
inhibition at 50 ug/ml [6]: 74.9%
inhibition [7]: 67.1%
inhibition [8]: 46.1%
inhibition [9]: 0.9%
inhibition [10]: 10.7%
inhibition [11]: 53.6%
inhibition [12]: -7.3%
inhibition [13]: 81%
inhibition [14]: 52.5%
IC50 [2]: > 100 µM
Compound: CC(C)c1ccc2c(c1)CC[C@H]1[C@](C)(C(=O)O)CCC[C@]21C [DEHYDROABIETIC ACID]
